Assay results from paper PMC5433425 (PeerJ, 2017).
Several values for one entry are separate records, joined by “and”; a condition that tells them apart may be missing. Equal values may be shown once. Read-outs that look alike come from different tables or passages of the source. Peptide text beside a SMILES is read from it. * marks the point of attachment. βNA = c1ccc2cc(N*)ccc2c1

What was measured:
E. coli AG100A = details: EtBr […] + inhibitor 20 µM
[1] = tested on: E. coli AG100A (AcrAB pump-deficient); experiment: MIC, broth microdilution; assay type: cell-based, Escherichia coli; details: Escherichia coli
E. coli AG100 [2] = experiment: Membrane potential assay (BacLight, DiOC2(3)); details: 80 µM
E. coli AG100 [3] = experiment: EtBr accumulation by real-time fluorometry; details: EtBr 1 µg/ml + inhibitor 80 µM
E. coli AG100 [4] = experiment: Checkerboard synergy assay (MIC of antibiotics/EtBr with efflux inhibitor); assay type: cell-based, Escherichia coli; details: Escherichia coli
Description: (§1) The assays were performed in triplicate and the MIC value was given as result of at least two concordant values.

E. coli AG100tet [5] = experiment: microbe, parasite or virus in culture; assay type: cell-based, Escherichia coli; details: for MIC: Escherichia coli, AG100TET
Description: as §1

E. coli AG100tet [6] = experiment: EtBr accumulation by real-time fluorometry; details: EtBr 2 µg/ml + inhibitor 80 µM

NC(N)=NCCC[C@H](NC(=O)[C@@H](N)Cc1ccccc1)C(=O)Nc1ccc2ccccc2c1 [PAβN] (H-Phe-Arg-βNA)
EtBr fluorescence (E. coli AG100A; cycle 1): 2.806
EtBr fluorescence (E. coli AG100A; cycle 2): 3.199
EtBr fluorescence (E. coli AG100A; cycle 3): 3.493
EtBr fluorescence (E. coli AG100A; cycle 4): 3.706
EtBr fluorescence (E. coli AG100A; cycle 5): 3.997
EtBr fluorescence (E. coli AG100A; cycle 6): 4.263
EtBr fluorescence (E. coli AG100A; cycle 7): 4.462
EtBr fluorescence (E. coli AG100A; cycle 8): 4.698
EtBr fluorescence (E. coli AG100A; cycle 9): 5.01
EtBr fluorescence (E. coli AG100A; cycle 10): 5.162
EtBr fluorescence (E. coli AG100A; cycle 11): 5.32
EtBr fluorescence (E. coli AG100A; cycle 12): 5.607
EtBr fluorescence (E. coli AG100A; cycle 13): 5.848
EtBr fluorescence (E. coli AG100A; cycle 14): 6.013
EtBr fluorescence (E. coli AG100A; cycle 15): 6.228
EtBr fluorescence (E. coli AG100A; cycle 16): 6.479
EtBr fluorescence (E. coli AG100A; cycle 17): 6.607
EtBr fluorescence (E. coli AG100A; cycle 18): 6.927
EtBr fluorescence (E. coli AG100A; cycle 19): 6.923
EtBr fluorescence (E. coli AG100A; cycle 20): 7.2698
EtBr fluorescence (E. coli AG100A; cycle 21): 7.508
EtBr fluorescence (E. coli AG100A; cycle 22): 7.627
EtBr fluorescence (E. coli AG100A; cycle 23): 7.913
EtBr fluorescence (E. coli AG100A; cycle 24): 7.996
EtBr fluorescence (E. coli AG100A; cycle 25): 8.302
EtBr fluorescence (E. coli AG100A; cycle 26): 8.33
EtBr fluorescence (E. coli AG100A; cycle 27): 8.55
EtBr fluorescence (E. coli AG100A; cycle 28): 8.862
EtBr fluorescence (E. coli AG100A; cycle 29): 8.894
EtBr fluorescence (E. coli AG100A; cycle 30): 9.1148
MIC [1]: 50 µg/mL and 96.3 µM
membrane depolarization (E. coli AG100 [2]): 14%
EtBr fluorescence (E. coli AG100 [3]; cycle 1): 5.077
EtBr fluorescence (E. coli AG100 [3]; cycle 2): 5.498
EtBr fluorescence (E. coli AG100 [3]; cycle 3): 5.692
EtBr fluorescence (E. coli AG100 [3]; cycle 4): 6.095
EtBr fluorescence (E. coli AG100 [3]; cycle 5): 6.2405
EtBr fluorescence (E. coli AG100 [3]; cycle 6): 6.476
EtBr fluorescence (E. coli AG100 [3]; cycle 7): 6.738
EtBr fluorescence (E. coli AG100 [3]; cycle 8): 6.948
EtBr fluorescence (E. coli AG100 [3]; cycle 9): 7.121
EtBr fluorescence (E. coli AG100 [3]; cycle 10): 7.401
EtBr fluorescence (E. coli AG100 [3]; cycle 11): 7.525
EtBr fluorescence (E. coli AG100 [3]; cycle 12): 7.725
EtBr fluorescence (E. coli AG100 [3]; cycle 13): 8.024
EtBr fluorescence (E. coli AG100 [3]; cycle 14): 8.041
EtBr fluorescence (E. coli AG100 [3]; cycle 15): 8.277
EtBr fluorescence (E. coli AG100 [3]; cycle 16): 8.537
EtBr fluorescence (E. coli AG100 [3]; cycle 17): 8.7426
EtBr fluorescence (E. coli AG100 [3]; cycle 18): 8.8367
EtBr fluorescence (E. coli AG100 [3]; cycle 19): 8.945
EtBr fluorescence (E. coli AG100 [3]; cycle 20): 9.137
EtBr fluorescence (E. coli AG100 [3]; cycle 21): 9.31
EtBr fluorescence (E. coli AG100 [3]; cycle 22): 9.534
EtBr fluorescence (E. coli AG100 [3]; cycle 23): 9.8
EtBr fluorescence (E. coli AG100 [3]; cycle 24): 9.927
EtBr fluorescence (E. coli AG100 [3]; cycle 25): 10.0486
EtBr fluorescence (E. coli AG100 [3]; cycle 26): 10.1364
EtBr fluorescence (E. coli AG100 [3]; cycle 27): 10.3331
EtBr fluorescence (E. coli AG100 [3]; cycle 28): 10.5844
EtBr fluorescence (E. coli AG100 [3]; cycle 29): 10.7732
EtBr fluorescence (E. coli AG100 [3]; cycle 30): 11.0863
MIC (E. coli AG100 [4]; AG100, AG100, inhibitor 40 μM, read-out: MIC of OXA in presence of the efflux inhibitor): 64 µg/mL
MIC (E. coli AG100 [4]; AG100, AG100, inhibitor 80 μM, read-out: MIC of OXA in presence of the efflux inhibitor): 64 µg/mL
MIC (E. coli AG100 [4]; AG100, AG100, inhibitor 160 μM, read-out: MIC of OXA in presence of the efflux inhibitor): 64 µg/mL
MIC (E. coli AG100 [4]; AG100, read-out: MIC of EtBr in presence of the efflux inhibitor, AG100, inhibitor 40 μM): 100 µg/mL
MIC (E. coli AG100 [4]; AG100, read-out: MIC of EtBr in presence of the efflux inhibitor, AG100, inhibitor 80 μM): 100 µg/mL
MIC (E. coli AG100 [4]; AG100, read-out: MIC of EtBr in presence of the efflux inhibitor, AG100, inhibitor 160 μM): 100 µg/mL
MIC (E. coli AG100 [4]; AG100, read-out: MIC of OFX in presence of the efflux inhibitor, AG100, inhibitor 40 μM): 0.06 µg/mL
MIC (E. coli AG100 [4]; AG100, read-out: MIC of OFX in presence of the efflux inhibitor, AG100, inhibitor 80 μM): 0.06 µg/mL
MIC (E. coli AG100 [4]; AG100, read-out: MIC of OFX in presence of the efflux inhibitor, AG100, inhibitor 160 μM): 0.06 µg/mL
MIC (E. coli AG100 [4]; AG100, read-out: MIC of TET in presence of the efflux inhibitor, AG100, inhibitor 40 μM): 2 µg/mL
MIC (E. coli AG100 [4]; AG100, read-out: MIC of TET in presence of the efflux inhibitor, AG100, inhibitor 80 μM): 1 µg/mL
MIC (E. coli AG100 [4]; AG100, read-out: MIC of TET in presence of the efflux inhibitor, AG100, inhibitor 160 μM): 0.06 µg/mL
decrease in EtBr MIC (E. coli AG100tet [5]; AG100tet (AcrAB-overexpressing strain)): 128 fold
MIC (E. coli AG100tet [5]; read-out: MIC of EtBr in presence of the efflux inhibitor, AG100tet, inhibitor 40 μM): 256 µg/mL
MIC (E. coli AG100tet [5]; read-out: MIC of EtBr in presence of the efflux inhibitor, AG100tet, inhibitor 80 μM): 128 µg/mL
MIC (E. coli AG100tet [5]; read-out: MIC of EtBr in presence of the efflux inhibitor, AG100tet, inhibitor 160 μM): 4 µg/mL
MIC (E. coli AG100tet [5]; read-out: MIC of OFX in presence of the efflux inhibitor, AG100tet, inhibitor 40 μM): 0.06 µg/mL
MIC (E. coli AG100tet [5]; read-out: MIC of OFX in presence of the efflux inhibitor, AG100tet, inhibitor 80 μM): 0.03 µg/mL
MIC (E. coli AG100tet [5]; read-out: MIC of OFX in presence of the efflux inhibitor, AG100tet, inhibitor 160 μM): 0.03 µg/mL
MIC (E. coli AG100tet [5]; read-out: MIC of OXA in presence of the efflux inhibitor, AG100tet, inhibitor 40 μM): 256 µg/mL
MIC (E. coli AG100tet [5]; read-out: MIC of OXA in presence of the efflux inhibitor, AG100tet, inhibitor 80 μM): 256 µg/mL
MIC (E. coli AG100tet [5]; read-out: MIC of OXA in presence of the efflux inhibitor, AG100tet, inhibitor 160 μM): 64 µg/mL
MIC (E. coli AG100tet [5]; read-out: MIC of TET in presence of the efflux inhibitor, AG100tet, inhibitor 40 μM): 8 µg/mL
MIC (E. coli AG100tet [5]; read-out: MIC of TET in presence of the efflux inhibitor, AG100tet, inhibitor 80 μM): 4 µg/mL
MIC (E. coli AG100tet [5]; read-out: MIC of TET in presence of the efflux inhibitor, AG100tet, inhibitor 160 μM): 2 µg/mL
EtBr fluorescence (E. coli AG100tet [6]; cycle 1): 11.1278
EtBr fluorescence (E. coli AG100tet [6]; cycle 2): 12.695
EtBr fluorescence (E. coli AG100tet [6]; cycle 3): 14.0098
EtBr fluorescence (E. coli AG100tet [6]; cycle 4): 14.9916
EtBr fluorescence (E. coli AG100tet [6]; cycle 5): 15.9316
EtBr fluorescence (E. coli AG100tet [6]; cycle 6): 16.6928
EtBr fluorescence (E. coli AG100tet [6]; cycle 7): 17.1135
EtBr fluorescence (E. coli AG100tet [6]; cycle 8): 17.7313
EtBr fluorescence (E. coli AG100tet [6]; cycle 9): 18.0085
EtBr fluorescence (E. coli AG100tet [6]; cycle 10): 18.4427
EtBr fluorescence (E. coli AG100tet [6]; cycle 11): 18.7463
EtBr fluorescence (E. coli AG100tet [6]; cycle 12): 18.8264
EtBr fluorescence (E. coli AG100tet [6]; cycle 13): 19.2404
EtBr fluorescence (E. coli AG100tet [6]; cycle 14): 19.2594
EtBr fluorescence (E. coli AG100tet [6]; cycle 15): 19.2787
EtBr fluorescence (E. coli AG100tet [6]; cycle 16): 19.7369
EtBr fluorescence (E. coli AG100tet [6]; cycle 17): 19.738
EtBr fluorescence (E. coli AG100tet [6]; cycle 18): 20.2008
EtBr fluorescence (E. coli AG100tet [6]; cycle 19): 19.7958
EtBr fluorescence (E. coli AG100tet [6]; cycle 20): 20.1672
EtBr fluorescence (E. coli AG100tet [6]; cycle 21): 20.6387
EtBr fluorescence (E. coli AG100tet [6]; cycle 22): 20.6639
EtBr fluorescence (E. coli AG100tet [6]; cycle 23): 21.3214
EtBr fluorescence (E. coli AG100tet [6]; cycle 24): 21.3175
EtBr fluorescence (E. coli AG100tet [6]; cycle 25): 21.5239
EtBr fluorescence (E. coli AG100tet [6]; cycle 26): 21.9663
EtBr fluorescence (E. coli AG100tet [6]; cycle 27): 22.3215
EtBr fluorescence (E. coli AG100tet [6]; cycle 28): 22.6925
EtBr fluorescence (E. coli AG100tet [6]; cycle 29): 23.1641
EtBr fluorescence (E. coli AG100tet [6]; cycle 30): 23.4062
